The test system of data set [1] is FMDV serotype A. The class given is cell-based, A/TAI/NP05/2016 (NP05).
The target of data set [2] is FMDV 3C^pro (Foot-and-mouth disease virus, UniProt P03306). The data set is described as follows: cell-based. To be noted: for IC90: HEK-293T.
For data set [3], the system named is FMDV serotype A.
The nature of data set [4]: in vitro. To be noted: human.
Data set [5] relates to IFN-antagonist activity of FMDV 3C^pro. Format: cell-based, human.
The test system of data set [6] is FMDV. The class given is cell-based, FMDV serotype A, A/TAI/NP05/2016 (NP05).
In data set [7] the test system is FMDV. Format: cell-based, FMDV serotype A, A/TAI/NP05/2016 (NP05). The source holds these as a separate data set.
For data set [8], the system named is FMDV serotype A. The data set is described as follows: organism not typed. To be noted: BHK-21.
For data set [9], the system named is chikungunya virus. As to conditions: cited from earlier work.
Data set [10] deals with BHK-21 cells. As to conditions: hamster.
A short description of data set [11]: in vitro. To be noted: hamster.
Data set [12] concerns hepatitis B virus. To be noted: cited from earlier work.

Structures are written as SMILES. “And” between values parts separate entries of the source, which are not always exact repeats. Equal values may be shown once. Read-outs that look alike come from different tables or passages of the source.

A word on the IC50: it is the concentration at which inhibition is half-maximal. A lower IC50 goes with greater potency. What is called IC90 is the point of the concentration-response curve where the effect stands at 90%. Read a low IC90 as greater potency. By EC50 is commonly meant the concentration needed to bring the measured effect to its halfway point.

Sequence of FMDV 3C^pro (P03306 1650-1862 limits assumed): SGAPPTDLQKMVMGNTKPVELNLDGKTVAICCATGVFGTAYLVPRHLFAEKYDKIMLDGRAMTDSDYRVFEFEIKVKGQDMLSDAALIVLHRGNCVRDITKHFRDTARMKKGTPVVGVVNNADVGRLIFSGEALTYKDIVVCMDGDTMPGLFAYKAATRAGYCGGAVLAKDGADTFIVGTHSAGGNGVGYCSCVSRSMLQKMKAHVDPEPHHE

As to `C=C1CC[C@@H]2[C@](C)(CO)[C@H](O)CC[C@@]2(C)[C@@H]1C/C=C1/C(=O)OC[C@H]1O` [AGL, andrographolide], in data set [1], the “Viral nucleic acids (viral copy numbers)” value is recorded as “significantly decreased”. In data set [2], this compound returned a half-inhibitory concentration (IC50) of 67.4 ± 0.81 µM and an IC90 of 267.2 ± 2.43 µM. Also, in [3], the “SI (CC50/EC50)” value was determined as 2.23. Besides, the CC50 in [4] turned out to be 453 ± 0.04 µM. For the same compound, in data set [5], the “Effect on IFN-antagonist activity of 3C^pro” value (shortened to “Effect”) is recorded as “significantly derepressed the IFN-antagonist activity of the 3C^pro”; the “ISG15 mRNA expression” value was 52.93 fold-changes and 59.99 fold-changes; the “ISG56 mRNA expression” value is 72.73 fold-changes and 107.66 fold-changes; the “Mx-1 mRNA expression” value was 5.33 fold-changes and 6.98 fold-changes. Besides, the “PKR mRNA expression” value in [5] was 6.22 fold-changes and 6.12 fold-changes. The Extracellular virucidal activity entry in data set [6] was “neither extracellular virucidal nor protection activities”. For the same compound, the Protection activity result in data set [7] was “neither extracellular virucidal nor protection activities”. This compound also had an EC50 in data set [8] of 52.18 ± 0.01 µM. The EC50 in data set [9] was 77.4 µM and 88 µM. Further, the CC10 in data set [10] was found to be 94.55 ± 0.02 µM. Further, in data set [11], the CC50 came out at 116.8 ± 0.03 µM. Besides, in data set [12], the EC50 is 54.1 µM.
On to `C=C1CC[C@@H]2[C@](C)(CO[C@@H]3O[C@H](CO)[C@@H](O)[C@H](O)[C@H]3O)CCC[C@@]2(C)[C@@H]1CCC1=CCOC1=O` [NEO, neoandrographolide], for which the “Viral nucleic acids (viral copy numbers)” value in data set [1] was “reduced viral replication to a lesser extent”. In [2], this compound showed an IC50 of 111 ± 2.04 µM and a concentration for an effect of 90% (IC90) of 635.8 ± 2.9 µM. For the same compound, in [3], the midpoint of the response, the EC50, lay at 542.4 ± 0.2 µM and the “SI (CC50/EC50)” value was found to be 0.38. Besides, the CC50 in [4] came out at 914.2 ± 0.04 µM. Besides, in [5], the “Effect” value is on record as “could not reduce the IFN suppression by 3C^pro”; the “ISG15 mRNA expression” value was 37.58 fold-changes and 32.91 fold-changes; the “ISG56 mRNA expression” value is 62.33 fold-changes and 55.39 fold-changes; the “Mx-1 mRNA expression” value was 2.19 fold-changes and 4.00 fold-changes. Further, in [5], the “OAS-1 mRNA expression” value was 106.88 fold-changes and 163.69 fold-changes; the “PKR mRNA expression” value was 3.65 fold-changes and 1.99 fold-changes. The Extracellular virucidal activity entry in data set [6] is recorded as “neither extracellular virucidal nor protection activities”. Further, the Protection activity result in data set [7] was “neither extracellular virucidal nor protection activities”. Further, the half-maximal effective concentration (EC50) in data set [8] was over 500 µM. In data set [10], this compound registered a CC10 of 149.94 ± 0.21 µM and a CC50 of 211.5 ± 0.03 µM. Besides, the CC50 in data set [11] was determined as 332.3 ± 0.09 µM.
In the case of `C=C1CC[C@@H]2[C@](C)(CO)[C@H](O)CC[C@@]2(C)[C@@H]1CCC1=CCOC1=O` [DAG, deoxyandrographolide], the “Viral nucleic acids (viral copy numbers)” value in [1] is “significantly decreased”. Further, in [2], the IC50 was 25.6 ± 1.41 µM and the IC90 is 123 ± 2.09 µM. Further, the CC50 in data set [4] was 651.4 ± 0.32 µM. Moreover, in [5], the “Effect” value is “significantly derepressed the IFN-antagonist activity of the 3C^pro”; the “ISG15 mRNA expression” value is 62.36 fold-changes and 64.43 fold-changes; the “ISG56 mRNA expression” value was 84.77 fold-changes and 77.60 fold-changes; the “Mx-1 mRNA expression” value is 14.37 fold-changes and 13.04 fold-changes. Besides, in [5], the “OAS-1 mRNA expression” value was 250.25 fold-changes and 244.76 fold-changes; the “PKR mRNA expression” value is 11.65 fold-changes and 12.84 fold-changes. For the same compound, in [6], the Extracellular virucidal activity entry is reported as “neither extracellular virucidal nor protection activities”. Moreover, the Protection activity entry in [7] was “neither extracellular virucidal nor protection activities”. In data set [8], the 50% effective concentration (EC50) came to 36.47 ± 0.07 µM. In [10], the CC10 was 81.05 ± 0.01 µM and the CC50 worked out at 332.3 ± 0.09 µM. The compound also showed a CC50 in [11] of 211.5 ± 0.03 µM.
